Measurements as given in US20200009105A1, “PROSTACYCLIN, PROSTACYCLIN ANALOGS, AND METHODS OF TREATING OR PREVENTING REJECTION OF SOLID ORGAN TRANSPLANTS” (VANDERBILT UNIVERSITY, priority 2017, published 2020).
Values joined by “and” are separate entries in the source; they are usually repeats but may differ in a detail not shown here. Equal values may be shown once.

Experiments:
[1] = oral administration; cited from earlier work
[2] = in vivo; cited from earlier work
Th2 cells = conditions: in vitro, Th2 cells differentiated under IL-4 and anti-IFN-γ; cited from earlier work
[3] = cited from earlier work
lung DCs = conditions: mouse model; cited from earlier work
DCs = conditions: cited from earlier work
IP = IP (Homo sapiens, UniProt P43119); conditions: compared with treprostinil; cited from earlier work
[4] = rat, chronic administration; cited from earlier work
PGE2 receptor EP2 = PGE2 receptor EP2 (Homo sapiens, UniProt P43116); conditions: cited from earlier work
CD4^+ T cells [5] = assay: Intracellular cytokine staining for flow cytometry of IL-33-stimulated T cells; format: cell-based, mouse; conditions: in the presence of IL-33, 3 days, vs vehicle
Procedure: (§1) CD4^+ T cells were purified from the splenic cells of WT, or IP KO mice by a mouse naive CD4^+ T cell isolation kit II (Miltenyi Biotec, Auburn, Calif.). The purified CD4^+CD62L^+ T cell population contains 97.5% CD3^+CD4^+ cells as determined by flow cytometry. The purified CD4 T cells were resuspended at 1×10^6 cells/ml in RPMI 1640 medium (Mediatech, Herndon, Va.) supplemented with 10% FBS (HyClone, Logan, Utah), 4 mM of L-glutamine, 1 mM of sodium pyruvate, […] of 2-ME, 10 mM of HEPES, 100 U/ml penicillin, and 100 μg/ml streptomycin. […]
(§2) At day 3 of cell culture, the cells were harvested for flow cytometric staining with fluorochrome-labeled antibodies against CD4^+ (Biolegend, San Diego, Calif.), Gata3 (Affymetrix, Santa Clara, Calif.), CD25 (BD Biosciences, San Jose, Calif.), or TSLPR (R&D Systems, Minneapolis, Minn.). An LSR II flow cytometer (BD Biosciences) was used for flow cytometry and the data were analyzed with FlowJo software (FlowJo, LLC, Ashland Oreg.). For cell proliferation assay, CFSE intensity of the cultured cells was determined at day 3 by flow cytometry. Cell division index was calculated with FlowJo software. […]

CD4^+ T cells [6] = assay: IL-2 production by CD4+ T cells (ELISA, day 2 supernatant); format: cell-based, mouse; conditions: WT CD4+ T cells, IL-33, day 2
Procedure: as §1
IL-2, IL-4, IL-5, and IL-13 in the culture supernatant were measured by DuoSet ELISA kits from R&D Systems according to the manufacturer's instructions. Phosphorylated STAT5 (p-STAT5) was measured by phosphor-STAT5A/B (Tyr694/Tyr699) InstantOne™ ELISA kit (Affymetrixes). […]
In vitro activation of mouse naïve CD4^+ T cells results in the expression of IL-2, a growth factor critical for cell survival and proliferation (19). To investigate whether cicaprost inhibits IL-33-induced type 2 cytokine production by suppressing CD4^+ T cell IL-2 production and cell activation, IL-2 levels were measured in the culture supernatant.

NFAT = NFAT function assay (NFAT-luciferase reporter lentiviral vector); format: cell-based, mouse; conditions: WT cells, after 3 days of cell culture
Procedure: To determine NFAT activation, a Cignal Lenti NFAT reporter (luc) kit (Qiagen, Hilden, Germany), was used to transduce naïve CD4^+ T cells. CD4^+ T cells (10^5) of WT and IP KO mice were transduced with 2×10^5 transduction units of lentiviral vector (MOI=2) and 30 μg transduction reagent in 60 μl of transduction medium without antibiotics for 24 h in 96 well plates coated with anti-CD3 and anti-CD28. The cells were then pooled, washed, seeded and treated with IL-33 plus either cicaprost or vehicle. After culture for 2 more days in the same plates, the cells were harvested and the cell lysate was used for luciferase assay with Luciferase Assay System with Reporter Lysis Buffer (Promega, Madison, Wis.). The luciferase activity indicates the levels of NFAT activation. To determine whether the suppressive effect of cicaprost on IL-2 production is associated with the inhibition of NFAT, a transcription factor that binds to the IL-2 gene promoter to activate IL-2 gene expression, an NFAT function assay was performed with an NFAT-luciferase reporter lentiviral vector system.

STAT5 = assay: Phosphorylated STAT5 in CD4+ T cell lysate (ELISA); format: cell-based, mouse; conditions: WT cells, 2 days, IL-33
Procedure: (§3) Cell culture supernatant was collected at day 2 for IL-2 measurement because IL-2 production by activated CD4^+ T cells peak at day 2 (unpublished data). At day 3, the culture supernatant was harvested for IL-4, IL-5 and IL-13 measurement. At day 2, the cells were harvested and the cell lysate was prepared for p-STAT5 measurement.
(§4) IL-2, IL-4, IL-5, and IL-13 in the culture supernatant were measured by DuoSet ELISA kits from R&D Systems according to the manufacturer's instructions. Phosphorylated STAT5 (p-STAT5) was measured by phosphor-STAT5A/B (Tyr694/Tyr699) InstantOne™ ELISA kit (Affymetrixes). Measurements below the limit of detection were assigned a value of half the lower limit of detection for purposes of statistical analyses.
Binding of IL-2 to IL-2 receptor leads to the activation of JAK1 and JAK3 and the activation of the downstream transcription factors STAT5 (21). To test whether cicaprost downregulates IL-2 receptor signaling, the levels of phosphorylated STAT5 were measured in CD4^+ T cells harvested 2 days after the cell activation and treatment with IL-33 plus either vehicle or cicaprost.

Gata3 = Gata3 expression in CD4+ T cells by flow cytometry; format: cell-based, mouse; conditions: WT mice, 1000 nM, IL-33, 3 days
Procedure: (§5) CD4^+ T cells were purified from the splenic cells of WT, or IP KO mice by a mouse naive CD4^+ T cell isolation kit II (Miltenyi Biotec, Auburn, Calif.). The purified CD4^+CD62L^+ T cell population contains 97.5% CD3^+CD4^+ cells as determined by flow cytometry. The purified CD4 T cells were resuspended at 1×10^6 cells/ml in RPMI 1640 medium (Mediatech, Herndon, Va.) supplemented with 10% FBS (HyClone, Logan, Utah), 4 mM of L-glutamine, 1 mM of sodium pyruvate, […] of 2-ME, 10 mM of HEPES, 100 U/ml penicillin, and 100 μg/ml streptomycin. The cells were stimulated with plate-bound anti-CD3 (10 μg/ml) and anti-CD28 (2 μg/ml; BD Biosciences, San Diego, Calif.) in 96-well flat-bottom plates and treated with IL-33 (20 ng/ml) plus cicaprost (a generous gift provided by Dr. Manuela Huebner, Bayer HealthCare, Berlin, Germany) at various concentrations or vehicle (water) control. The cells were cultured for 3 days. For T cell proliferation experiments, naive CD4^+ T cells were stained with 1 μM CFSE before cell culture and cicaprost treatment.
as §2
The differentiation of naïve CD4^+ T cells into Th2 cells under IL-4 culture conditions requires the expression of the transcription factor Gata3 (18). To investigate whether Gata3 plays a role in the inhibitory effect of cicaprost on IL-33-induced type 2 cytokine production, the expression of Gata3 in CD4^+ T cells activated with IL-33 and treated with cicaprost at various concentrations or vehicle for 3 days was determined. […]

[7] = test system: type 2 innate lymphoid cells (ILC2); conditions: cited from earlier work
ILC2 = conditions: WT mice; cited from earlier work
TSLPR = TSLPR expression on T cells by flow cytometry; format: cell-based, mouse; conditions: WT or IP KO T cell culture in the presence of IL-33 (data not shown)
Procedure: (§6) At day 3 of cell culture, the cells were harvested for flow cytometric staining with fluorochrome-labeled antibodies against CD4^+ (Biolegend, San Diego, Calif.), Gata3 (Affymetrix, Santa Clara, Calif.), CD25 (BD Biosciences, San Jose, Calif.), or TSLPR (R&D Systems, Minneapolis, Minn.). An LSR II flow cytometer (BD Biosciences) was used for flow cytometry and the data were analyzed with FlowJo software (FlowJo, LLC, Ashland Oreg.). For cell proliferation assay, CFSE intensity of the cultured cells was determined at day 3 by flow cytometry. Cell division index was calculated with FlowJo software. At day 3, the cells were stained with the cell viability dye 4,6-diamidino-2-phenylindole (DAPI), and 123count™ eBeads (Affymetrix) were added to the cell solution for live cell counting by flow cytometry.
(§7) To determine whether cicaprost attenuates the IL-2 signaling pathway, CD4^+ T cells activated and treated with either cicaprost or vehicle for 3 days were stained with fluorochrome-labeled anti-CD25 antibody and analyzed by flow cytometry.

CD25 = CD25 surface expression on CD4+ T cells by flow cytometry; format: cell-based, mouse; conditions: 3 days, vs vehicle control
Procedure: as §5, §6, §7

[8] = test system: naïve CD4^+ T cells of WT and IP KO mice; assay: IL-33-induced type 2 cytokine production by naive CD4+ T cells (ELISA of culture supernatant); format: cell-based, mouse
Procedure: as §5, §3, §4
To determine the effect of PGI2 signaling on IL-33-induced Th2 differentiation, naïve CD4^+ T cells of WT and IP KO mice, both on BALB/c background, were activated with anti-CD3 and anti-CD28 either with or without IL-33 and treated with cicaprost or vehicle for 3 days.

CD4^+ T cells [9] = assay: CD4+ T cell proliferation (CFSE dilution) and live cell counting; format: cell-based, mouse; conditions: WT CD4+ T cells, 1000 nM, IL-33, day 3
Procedure: as §1, §2
To further analyze the effect of cicaprost on cell proliferation, naïve CD4^+ T cells were CFSE-labeled, activated with anti-CD3 and anti-CD28, and treated with IL-33 plus either vehicle or cicaprost. Cell proliferation was determined by CFSE dilution.

[10] = IP KO CD4+ T cells, anti-CD3/anti-CD28 + IL-33, 3 days
[11] = WT CD4+ T cells, anti-CD3/anti-CD28 + IL-33, 3 days
[12] = in the presence of either 10 ng/ml or 50 ng/ml exogenous IL-2, IL-33, 3 days

Sequence of PGE2 receptor EP2 (P43116 whole entry): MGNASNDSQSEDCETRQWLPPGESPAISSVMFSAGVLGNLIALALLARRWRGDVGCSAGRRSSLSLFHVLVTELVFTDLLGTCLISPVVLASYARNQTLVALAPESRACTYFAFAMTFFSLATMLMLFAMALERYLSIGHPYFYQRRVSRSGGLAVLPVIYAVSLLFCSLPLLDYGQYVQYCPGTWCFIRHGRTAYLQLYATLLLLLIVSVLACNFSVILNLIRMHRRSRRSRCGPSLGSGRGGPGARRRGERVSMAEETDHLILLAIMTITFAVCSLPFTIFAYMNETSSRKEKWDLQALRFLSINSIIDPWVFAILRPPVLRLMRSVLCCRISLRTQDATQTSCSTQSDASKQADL
Sequence of IP (P43119 whole entry): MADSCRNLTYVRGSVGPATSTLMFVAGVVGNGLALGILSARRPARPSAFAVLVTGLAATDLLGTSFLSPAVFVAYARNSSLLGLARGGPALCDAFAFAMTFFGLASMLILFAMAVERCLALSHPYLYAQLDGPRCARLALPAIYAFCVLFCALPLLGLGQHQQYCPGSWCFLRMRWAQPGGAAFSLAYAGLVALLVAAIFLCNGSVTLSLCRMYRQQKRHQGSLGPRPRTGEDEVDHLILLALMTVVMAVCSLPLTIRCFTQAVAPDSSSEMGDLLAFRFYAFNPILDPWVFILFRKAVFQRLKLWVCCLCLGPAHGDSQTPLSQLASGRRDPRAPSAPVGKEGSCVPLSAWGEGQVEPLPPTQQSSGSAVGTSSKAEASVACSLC

Structure (SMILES): CC#CCC(C)[C@H](O)/C=C/[C@@H]1[C@H]2C/C(=C/CCCC(=O)O)C[C@H]2C[C@H]1O (stereo partly drawn) [Iloprost]
- iloprost reaching the systemic circulation [1]: less than 20%
- safety of administration to pulmonary hypertension patients [2]: safe
- production of effector cytokine IL-4 (Th2 cells): inhibited
- production of effector cytokine IL-5 (Th2 cells): inhibited
- half-life [3]: 13 min
- maturation and migration of lung DCs to the mediastinal LNs (lung DCs): inhibited
- LPS-induced expression of CD40 by DCs (DCs): suppressed
- LPS-induced expression of CD86 by DCs (DCs): suppressed
- LPS-induced expression of MHC class II molecules by DCs (DCs): suppressed
- ability of DCs to stimulate antigen-specific CD4 T cell proliferation (DCs): inhibited
- ability of DCs to stimulate production of the Th2 cytokine IL-5 (DCs): inhibited
- ability of DCs to stimulate production of the Th2 cytokine IL-13 (DCs): inhibited
- specificity for IP (IP): greater specificity for IP than treprostinil

Structure (SMILES): CCCCC[C@H](O)/C=C/[C@@H]1[C@H]2C/C(=C/CCCC(=O)O)O[C@H]2C[C@H]1O [PGI2, prostacyclin]
- half-life (biologic half-life) [3]: 46 seconds and 60-90 seconds

Structure (SMILES): CCCCC[C@H](O)CC[C@@H]1[C@H]2Cc3cccc(OCC(=O)O)c3C[C@H]2C[C@H]1O [Treprostinil]
- safety of administration to pulmonary hypertension patients [2]: safely used
- degree of experimentally-induced pulmonary hypertension [4]: decreasing
- half-life compared with epoprostenol [3]: longer
- activation of PGE2 receptor EP2 (PGE2 receptor EP2): also activated

Structure (SMILES): CCC#CC[C@H](C)[C@H](O)C#C[C@@H]1[C@H]2C/C(=C/COCC(=O)O)C[C@H]2C[C@H]1O [cicaprost]
- total numbers of IL-4+ T cells (CD4^+ T cells [5]): dose-dependently decreased
- total numbers of IL-13+ T cells (CD4^+ T cells [5]): dose-dependently decreased
- IL-2 production (CD4^+ T cells [6]): dose-dependently suppressed
- NFAT function (luciferase activity) (NFAT): significantly suppressed
- STAT5 phosphorylation (STAT5): dose-dependently attenuated
- Gata3 mean fluorescence intensity (Gata3): significantly decreased
- percentages of Gata3-expressing CD4+ T cells (Gata3): significantly decreased
- total number of Gata3-expressing CD4+ T cells (Gata3): significantly decreased
- IL-33-induced cytokine responses of ILC2 [7]: inhibited
- ILC2 response (ILC2): inhibited
- production of effector cytokine IL-4 (Th2 cells): inhibited
- production of effector cytokine IL-5 (Th2 cells): inhibited
- TSLPR MFI (TSLPR): did not change
- percentages of TSLPR expressing cells (TSLPR): did not change
- CD25 mean fluorescence intensity (CD25): dose-dependently decreased
- percentages of CD25 expressing cells (CD25): dose-dependently decreased
- total numbers of CD25 expressing cells (CD25): dose-dependently decreased
- IL-4 production [8, 10]: did not change
- IL-5 production [8, 10]: did not change
- IL-13 production [8, 10]: did not change
- IL-4 production [8, 11]: dose dependently decreased
- IL-5 production [8, 11]: dose dependently decreased
- IL-13 production [8, 11]: dose dependently decreased
- IL-5 production [8, 12]: still significantly inhibited
- IL-13 production [8, 12]: still significantly inhibited
- cell division index (CD4^+ T cells [9]): significantly decreased
- total number of live cells (CD4^+ T cells [9]): significantly decreased
- LPS-induced expression of CD40 by DCs (DCs): suppressed
- LPS-induced expression of CD86 by DCs (DCs): suppressed
- LPS-induced expression of MHC class II molecules by DCs (DCs): suppressed
- ability of DCs to stimulate antigen-specific CD4 T cell proliferation (DCs): inhibited
- ability of DCs to stimulate production of the Th2 cytokine IL-5 (DCs): inhibited
- ability of DCs to stimulate production of the Th2 cytokine IL-13 (DCs): inhibited
